The text below walks through data of patent publication US3966850A, “O-ethyl-S-n-propyl-O-(2-bromo-4-cyanophenyl)-thionothiol-phosphoric acid ester” (priority 1973, dated 1976).

The test system of one series is insects. To be noted: known from U.S. Pat. No. 3,607,991; cited from earlier work.
Series [1] has as its system insects and mites (Acarina). Put plainly: Insecticidal and acaricidal activity (statement in words). The class given is in vivo. The settings on record: sucking and biting insects and mites (Acarina).
The next series relates to warm-blooded animals. Kind of series: Toxicity to warm-blooded animals (statement in words). The class given is in vivo. To be noted: as compared to prior art compounds of analogous structure and same type of action.
Series [2] can be described thus: Toxicity test/peroral (LD50, evaluation after 7 days). The settings on record: rat, in vivo, po. The source says: Test animal: Albino rat (Rattus norvegicus)
Dosing was effected volumetrically after weighing the test animals. A steel knob-ended probe was used for oral administration.

For the compound `CCOP(=S)(OCC)Oc1ccc(C#N)cc1` [Compound A, O,O-diethyl-O-(4-cyanophenyl)-thionophosphoric acid ester], the insecticidal activity entry in the series with insects was “possess insecticidal activity”.

By LD50 is commonly meant the dose expected to kill half of the subjects tested. A higher LD50 goes with a less toxic substance. For `CCCSP(=S)(OCC)Oc1ccc(C#N)cc1Br` (stereo not shown) [I, O-ethyl-S-n-propyl-O-(2-bromo-4-cyanophenyl)-thionothiol-phosphoric acid ester], the “insecticidal and acaricidal activity” value in series [1] is “good insecticidal and acaricidal activity”. In addition, the “toxicity to warm-blooded animals” value with warm-blooded animals is “very low toxicity”. In series [2], this compound returned an LD50 at 168 h of 100 to 250 mg/kg.
